Assay results taken from article PMC9186362, “Design and biological evaluation of substituted 5,7-dihydro-6H-indolo[2,3-c]quinolin-6-one as novel selective Haspin inhibitors” (Journal of Enzyme Inhibition and Medicinal Chemistry, 2022).

Experiments:
Settings in all cases: read-out: Percentage of inhibition
AMPK (A1/B1/G2) = biological target: T1, AMPK (A1/B1/G2) (Homo sapiens, UniProt Q13131); assay: LanthaScreen Binding - Eu-anti-His
T1 construct: purchased Life Technologies (SelectScreen service)
Protocol: (§1) We further evaluated the selectivity profile of compound 55 on a larger panel of kinases (SelectScreen Whole Panel, Life Technologies). The inhibition profile of 55, evaluated at 1 μM, is depicted on a dendrogram on Figure 3 where kinases inhibited by a minimum of 80% are shown. A full list of the kinases tested is shown on Table S1 in supplementary information.

AMPK (A1/B1/G3) = biological target: T2, AMPK (A1/B1/G3) (Homo sapiens, UniProt Q13131); assay: LanthaScreen Binding - Eu-anti-His
T2 construct: purchased Life Technologies (SelectScreen service)
Protocol: as §1

AMPK (A1/B2/G1) = biological target: T3, AMPK (A1/B2/G1) (Homo sapiens, UniProt Q13131); assay: LanthaScreen Binding - Eu-anti-His
T3 construct: purchased Life Technologies (SelectScreen service)
Protocol: as §1

AMPK (A2/B2/G1) = biological target: T4, AMPK (A2/B2/G1) (Homo sapiens, UniProt P54646); assay: LanthaScreen Binding - Eu-anti-His
T4 construct: purchased Life Technologies (SelectScreen service)
T4 sequence (P54646 whole entry): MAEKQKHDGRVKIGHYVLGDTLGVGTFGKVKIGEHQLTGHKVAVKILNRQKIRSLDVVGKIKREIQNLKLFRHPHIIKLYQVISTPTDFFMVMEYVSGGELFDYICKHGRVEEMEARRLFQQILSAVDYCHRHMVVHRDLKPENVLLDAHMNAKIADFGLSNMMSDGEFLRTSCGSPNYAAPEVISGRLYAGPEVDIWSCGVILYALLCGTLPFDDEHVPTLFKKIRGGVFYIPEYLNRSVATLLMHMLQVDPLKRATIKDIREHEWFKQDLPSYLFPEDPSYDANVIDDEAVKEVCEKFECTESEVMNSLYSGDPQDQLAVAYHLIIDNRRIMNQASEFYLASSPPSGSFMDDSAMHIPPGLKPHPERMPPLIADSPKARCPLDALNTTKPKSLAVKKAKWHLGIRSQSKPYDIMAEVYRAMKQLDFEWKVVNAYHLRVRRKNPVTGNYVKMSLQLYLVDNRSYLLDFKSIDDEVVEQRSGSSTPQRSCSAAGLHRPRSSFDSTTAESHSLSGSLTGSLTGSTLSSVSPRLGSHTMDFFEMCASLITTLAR
T4 sequence (O43741 whole entry partner): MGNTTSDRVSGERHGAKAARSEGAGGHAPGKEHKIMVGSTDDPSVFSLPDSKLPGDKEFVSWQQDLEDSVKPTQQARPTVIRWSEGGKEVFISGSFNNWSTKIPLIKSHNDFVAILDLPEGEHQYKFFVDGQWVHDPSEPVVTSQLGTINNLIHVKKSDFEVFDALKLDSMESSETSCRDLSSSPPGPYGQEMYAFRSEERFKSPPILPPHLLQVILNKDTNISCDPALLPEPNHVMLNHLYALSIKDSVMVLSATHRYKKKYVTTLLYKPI
T4 sequence (P54619 whole entry partner): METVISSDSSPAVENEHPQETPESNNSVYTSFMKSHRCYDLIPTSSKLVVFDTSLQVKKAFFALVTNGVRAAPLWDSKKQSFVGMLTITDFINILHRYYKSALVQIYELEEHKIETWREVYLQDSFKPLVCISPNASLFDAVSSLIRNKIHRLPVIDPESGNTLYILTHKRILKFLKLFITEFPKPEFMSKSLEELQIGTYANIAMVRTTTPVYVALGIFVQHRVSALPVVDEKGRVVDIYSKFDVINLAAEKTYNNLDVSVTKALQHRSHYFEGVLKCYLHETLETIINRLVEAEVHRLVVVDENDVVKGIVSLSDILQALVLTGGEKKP
Protocol: as §1

AMPK (A2/B2/G2) = biological target: T5, AMPK (A2/B2/G2) (Homo sapiens, UniProt P54646); assay: LanthaScreen Binding - Eu-anti-His
T5 construct: purchased Life Technologies (SelectScreen service)
T5 sequence (P54646 whole entry): as the sequence (P54646 whole entry) above
T5 sequence (O43741 whole entry partner): as the sequence (O43741 whole entry partner) above
T5 sequence (Q9UGJ0 whole entry partner): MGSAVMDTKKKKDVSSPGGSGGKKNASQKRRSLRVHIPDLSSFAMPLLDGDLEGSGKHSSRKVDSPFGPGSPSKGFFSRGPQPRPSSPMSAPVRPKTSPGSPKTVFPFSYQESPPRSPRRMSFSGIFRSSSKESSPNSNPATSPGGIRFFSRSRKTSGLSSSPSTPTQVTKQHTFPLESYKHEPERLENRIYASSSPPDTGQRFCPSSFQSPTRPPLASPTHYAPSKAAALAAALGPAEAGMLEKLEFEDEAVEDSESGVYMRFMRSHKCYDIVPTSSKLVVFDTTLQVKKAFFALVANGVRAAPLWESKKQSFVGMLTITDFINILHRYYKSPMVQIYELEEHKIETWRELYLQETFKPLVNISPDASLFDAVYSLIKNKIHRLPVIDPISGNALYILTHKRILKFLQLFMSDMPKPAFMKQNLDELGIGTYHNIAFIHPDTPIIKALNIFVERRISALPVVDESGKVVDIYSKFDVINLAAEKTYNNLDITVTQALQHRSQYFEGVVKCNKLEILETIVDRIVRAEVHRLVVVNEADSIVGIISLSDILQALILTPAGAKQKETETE
Protocol: as §1

CAMKK1 (CAMKKA) = biological target: T6, CAMKK1 (CAMKKA) (Homo sapiens, UniProt Q8N5S9); assay: LanthaScreen Binding - Eu-anti-His
T6 construct: purchased Life Technologies (SelectScreen)
Protocol: as §1

CDK8/cyclin C = biological target: T7, CDK8/cyclin C (Homo sapiens, UniProt P49336); assay: LanthaScreen Binding - Eu-anti-His
T7 construct: purchased Life Technologies
Protocol: as §1

CDK9/cyclin K = CDK9/cyclin K (Homo sapiens, UniProt P50750); assay: LanthaScreen Binding - Eu-anti-His
Protocol: as §1

CLK4 = biological target: T8, CLK4 (Homo sapiens, UniProt Q9HAZ1); assay: LanthaScreen Binding - Eu-anti-His
T8 construct: purchased Life Technologies (SelectScreen Whole Panel)
Protocol: as §1

DAPK2 = biological target: T9, DAPK2 (Homo sapiens, UniProt Q9UIK4); assay: LanthaScreen Binding - Eu-anti-His
T9 construct: purchased Life Technologies (SelectScreen service)
Protocol: as §1

EPHA3 = EPHA3 (Homo sapiens, UniProt P29320); assay: LanthaScreen Binding - Eu-anti-His
Protocol: as §1

KIT V654A = biological target: T10, KIT V654A (Homo sapiens, UniProt P10721, V654A); assay: LanthaScreen Binding - Eu-anti-His
T10 construct: purchased Life Technologies (SelectScreen service)
Protocol: as §1

LIMK1 = biological target: T11, LIMK1 (Homo sapiens, UniProt P53667); assay: LanthaScreen Binding - Eu-anti-His
T11 construct: purchased Life Technologies (SelectScreen service)
Protocol: as §1

MAP2K1 (MEK1) = biological target: T12, MAP2K1 (MEK1) (Homo sapiens, UniProt Q02750); assay: LanthaScreen Binding - Eu-anti-His
T12 construct: purchased Life Technologies (SelectScreen Whole Panel)
Protocol: as §1

MAP2K2 (MEK2) = biological target: T13, MAP2K2 (MEK2) (Homo sapiens, UniProt P36507); assay: LanthaScreen Binding - Eu-anti-His
T13 construct: purchased Life Technologies
T13 sequence (P36507 whole entry): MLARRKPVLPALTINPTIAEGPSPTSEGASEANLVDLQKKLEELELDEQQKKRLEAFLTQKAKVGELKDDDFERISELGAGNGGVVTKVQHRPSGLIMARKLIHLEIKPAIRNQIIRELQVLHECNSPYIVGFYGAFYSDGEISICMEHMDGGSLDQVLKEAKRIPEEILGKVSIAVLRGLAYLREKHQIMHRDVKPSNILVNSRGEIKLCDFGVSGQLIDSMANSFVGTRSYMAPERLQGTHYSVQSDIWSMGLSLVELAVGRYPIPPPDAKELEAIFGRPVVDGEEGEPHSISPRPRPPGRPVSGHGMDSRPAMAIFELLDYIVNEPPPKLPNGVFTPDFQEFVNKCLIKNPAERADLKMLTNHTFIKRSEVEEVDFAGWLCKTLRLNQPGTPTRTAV
Protocol: as §1

MAP2K6 (MKK6) = biological target: T14, MAP2K6 (MKK6) (Homo sapiens, UniProt P52564); assay: LanthaScreen Binding - Eu-anti-His
T14 construct: purchased Life Technologies (SelectScreen Whole Panel service)
Protocol: as §1

[1] = biological target: T15, MAP2K6 (MKK6) S207E T211E (Homo sapiens, UniProt P52564, S207E/T211E); assay: LanthaScreen Binding - Eu-anti-His
T15 construct: purchased Life Technologies (SelectScreen Whole Panel service)
Protocol: as §1

[2] = biological target: T16, MAP3K7/MAP3K7IP1 (TAK1-TAB1) (Homo sapiens, UniProt O43318); assay: LanthaScreen Binding - Eu-anti-His
T16 construct: purchased Life Technologies (SelectScreen Whole Panel)
Protocol: as §1

MAPK15 (ERK7) = MAPK15 (ERK7) (Homo sapiens, UniProt Q8TD08); assay: LanthaScreen Binding - Eu-anti-His
Protocol: as §1

MAPK8 (JNK1) = biological target: T17, MAPK8 (JNK1) (Homo sapiens, UniProt P45983); assay: LanthaScreen Binding - Eu-anti-His
T17 construct: purchased Life Technologies (SelectScreen Whole Panel service)
Protocol: as §1

MAPK9 (JNK2) = biological target: T18, MAPK9 (JNK2) (Homo sapiens, UniProt P45984); assay: LanthaScreen Binding - Eu-anti-His
T18 construct: purchased Life Technologies (SelectScreen service)
T18 sequence (P45984 whole entry): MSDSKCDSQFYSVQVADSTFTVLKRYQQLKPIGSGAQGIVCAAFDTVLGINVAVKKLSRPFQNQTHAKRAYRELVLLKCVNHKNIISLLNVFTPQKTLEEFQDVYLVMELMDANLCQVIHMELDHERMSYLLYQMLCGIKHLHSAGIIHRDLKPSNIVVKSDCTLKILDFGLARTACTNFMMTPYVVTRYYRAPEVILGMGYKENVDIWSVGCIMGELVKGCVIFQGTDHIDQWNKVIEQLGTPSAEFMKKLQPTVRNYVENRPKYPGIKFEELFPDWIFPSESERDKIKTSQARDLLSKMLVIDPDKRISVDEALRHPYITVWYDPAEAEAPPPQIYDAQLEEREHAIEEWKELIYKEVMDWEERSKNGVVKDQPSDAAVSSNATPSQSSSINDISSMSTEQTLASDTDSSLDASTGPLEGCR
Protocol: as §1

RIPK2 = RIPK2 (Homo sapiens, UniProt O43353); assay: LanthaScreen Binding - Eu-anti-His
Protocol: as §1

STK16 (PKL12) = biological target: T19, STK16 (PKL12) (Homo sapiens, UniProt O75716); assay: LanthaScreen Binding - Eu-anti-His
T19 construct: purchased Life Technologies (SelectScreen Whole Panel)
Protocol: as §1

STK33 = biological target: T20, STK33 (Homo sapiens, UniProt Q9BYT3); assay: LanthaScreen Binding - Eu-anti-His
T20 construct: purchased Life Technologies (SelectScreen Whole Panel service)
Protocol: as §1

STK39 (STLK3) = biological target: T21, STK39 (STLK3) (Homo sapiens, UniProt Q9UEW8); assay: LanthaScreen Binding - Eu-anti-His
T21 construct: purchased Life Technologies (SelectScreen service)
Protocol: as §1

TEC = biological target: T22, TEC (Homo sapiens, UniProt P42680); assay: LanthaScreen Binding - Eu-anti-His
T22 construct: purchased Life Technologies
Protocol: as §1

ULK3 = biological target: T23, ULK3 (Homo sapiens, UniProt Q6PHR2); assay: LanthaScreen Binding - Eu-anti-His
T23 construct: purchased Life Technologies (SelectScreen Whole Panel service)
Protocol: as §1

WNK1 = WNK1 (Homo sapiens, UniProt Q9H4A3); assay: LanthaScreen Binding - Eu-anti-His
Protocol: as §1

WNK3 = biological target: T24, WNK3 (Homo sapiens, UniProt Q9BYP7); assay: LanthaScreen Binding - Eu-anti-His
T24 construct: purchased Life Technologies (SelectScreen Whole Panel)
Protocol: as §1

ABL1 H396P = ABL1 H396P (Homo sapiens, UniProt P00519, H396P); assay: LanthaScreen Binding - Eu-anti-GST
Protocol: as §1

ABL1 Q252H = biological target: T25, ABL1 Q252H (Homo sapiens, UniProt P00519, Q252H); assay: LanthaScreen Binding - Eu-anti-GST
T25 construct: purchased Life Technologies (SelectScreen service)
Protocol: as §1

CDK11/cyclin C = biological target: T26, CDK11/cyclin C (Homo sapiens, UniProt Q9BWU1); assay: LanthaScreen Binding - Eu-anti-GST
T26 construct: purchased Life Technologies
T26 sequence (Q9BWU1 whole entry): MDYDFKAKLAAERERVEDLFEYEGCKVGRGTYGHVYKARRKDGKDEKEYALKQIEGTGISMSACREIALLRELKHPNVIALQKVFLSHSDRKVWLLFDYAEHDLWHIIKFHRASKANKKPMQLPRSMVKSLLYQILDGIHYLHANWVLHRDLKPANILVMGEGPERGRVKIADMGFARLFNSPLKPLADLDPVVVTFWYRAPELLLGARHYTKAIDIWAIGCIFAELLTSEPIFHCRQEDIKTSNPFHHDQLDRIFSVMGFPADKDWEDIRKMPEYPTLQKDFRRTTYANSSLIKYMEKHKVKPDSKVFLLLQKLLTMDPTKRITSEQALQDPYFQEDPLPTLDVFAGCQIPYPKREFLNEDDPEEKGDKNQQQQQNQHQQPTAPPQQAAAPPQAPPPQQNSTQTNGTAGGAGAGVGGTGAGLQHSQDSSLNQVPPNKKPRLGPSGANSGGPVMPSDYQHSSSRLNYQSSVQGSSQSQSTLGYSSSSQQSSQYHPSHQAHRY
T26 sequence (P24863 whole entry partner): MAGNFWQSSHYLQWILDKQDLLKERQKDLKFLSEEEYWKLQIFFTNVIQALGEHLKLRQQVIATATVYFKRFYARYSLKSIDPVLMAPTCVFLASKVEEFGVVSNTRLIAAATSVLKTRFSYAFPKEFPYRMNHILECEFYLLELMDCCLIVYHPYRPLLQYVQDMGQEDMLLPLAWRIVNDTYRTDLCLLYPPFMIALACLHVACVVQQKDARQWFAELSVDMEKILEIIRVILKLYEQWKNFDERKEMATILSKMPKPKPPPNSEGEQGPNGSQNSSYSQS
Protocol: as §1

DDR2 = biological target: T27, DDR2 (Homo sapiens, UniProt Q16832); assay: LanthaScreen Binding - Eu-anti-GST
T27 construct: purchased Life Technologies
T27 sequence (Q16832 22-855): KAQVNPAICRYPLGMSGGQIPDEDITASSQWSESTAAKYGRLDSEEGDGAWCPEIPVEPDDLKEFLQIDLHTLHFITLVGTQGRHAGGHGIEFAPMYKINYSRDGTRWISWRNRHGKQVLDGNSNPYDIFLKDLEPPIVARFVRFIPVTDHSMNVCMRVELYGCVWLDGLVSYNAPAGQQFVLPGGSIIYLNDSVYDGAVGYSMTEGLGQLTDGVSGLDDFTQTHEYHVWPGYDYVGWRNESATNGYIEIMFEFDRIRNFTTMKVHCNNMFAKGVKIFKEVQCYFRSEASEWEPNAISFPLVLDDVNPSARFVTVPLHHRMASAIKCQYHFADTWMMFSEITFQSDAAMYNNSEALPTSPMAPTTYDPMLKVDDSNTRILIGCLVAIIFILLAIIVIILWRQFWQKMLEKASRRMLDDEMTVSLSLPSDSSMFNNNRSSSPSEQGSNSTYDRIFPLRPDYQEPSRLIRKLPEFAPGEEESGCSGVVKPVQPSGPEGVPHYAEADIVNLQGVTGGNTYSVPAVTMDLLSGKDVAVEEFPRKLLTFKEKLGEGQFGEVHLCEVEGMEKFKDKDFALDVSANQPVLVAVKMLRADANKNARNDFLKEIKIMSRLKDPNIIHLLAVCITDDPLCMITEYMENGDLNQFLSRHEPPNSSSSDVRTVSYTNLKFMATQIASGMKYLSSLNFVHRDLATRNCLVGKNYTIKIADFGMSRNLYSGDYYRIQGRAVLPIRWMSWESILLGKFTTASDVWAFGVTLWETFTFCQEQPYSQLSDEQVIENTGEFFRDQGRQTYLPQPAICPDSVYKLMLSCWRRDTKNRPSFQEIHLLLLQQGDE
Protocol: as §1

KIT A829P = biological target: T28, KIT A829P (Homo sapiens, UniProt P10721, A829P); assay: LanthaScreen Binding - Eu-anti-GST
T28 construct: purchased Life Technologies (SelectScreen service)
Protocol: as §1

KIT Y823D = biological target: T29, KIT Y823D (Homo sapiens, UniProt P10721, Y823D); assay: LanthaScreen Binding - Eu-anti-GST
T29 construct: purchased Life Technologies
Protocol: as §1

MAP3K2 (MEKK2) = biological target: T30, MAP3K2 (MEKK2) (Homo sapiens, UniProt Q9Y2U5); assay: LanthaScreen Binding - Eu-anti-GST
T30 construct: purchased Life Technologies
Protocol: as §1

MYLK4 = biological target: T31, MYLK4 (Homo sapiens, UniProt Q86YV6); assay: LanthaScreen Binding - Eu-anti-GST
T31 construct: purchased Life Technologies (SelectScreen Whole Panel)
Protocol: as §1

NUAK2 = biological target: T32, NUAK2 (Homo sapiens, UniProt Q9H093); assay: LanthaScreen Binding - Eu-anti-GST
T32 construct: purchased Life Technologies (SelectScreen Whole Panel)
Protocol: as §1

STK38L (NDR2) = biological target: T33, STK38L (NDR2) (Homo sapiens, UniProt Q9Y2H1); assay: LanthaScreen Binding - Eu-anti-GST
T33 construct: purchased Life Technologies (SelectScreen)
T33 sequence (Q9Y2H1 whole entry): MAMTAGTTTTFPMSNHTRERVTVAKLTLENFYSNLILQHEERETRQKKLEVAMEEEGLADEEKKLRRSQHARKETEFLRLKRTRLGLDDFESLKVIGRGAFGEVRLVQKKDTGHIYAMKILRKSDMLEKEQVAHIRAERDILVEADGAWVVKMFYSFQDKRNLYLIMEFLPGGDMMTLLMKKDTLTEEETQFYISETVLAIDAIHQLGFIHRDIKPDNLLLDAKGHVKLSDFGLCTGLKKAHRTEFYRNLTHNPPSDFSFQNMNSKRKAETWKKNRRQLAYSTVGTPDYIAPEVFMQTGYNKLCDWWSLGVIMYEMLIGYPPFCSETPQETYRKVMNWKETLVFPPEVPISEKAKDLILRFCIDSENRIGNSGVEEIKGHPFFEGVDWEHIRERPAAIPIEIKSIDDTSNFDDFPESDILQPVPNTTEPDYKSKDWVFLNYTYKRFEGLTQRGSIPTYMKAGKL
Protocol: as §1

In the case of `COc1ccc2[nH]c3c(=O)[nH]c4ccc(O)cc4c3c2c1` [Compound 55, 2-Hydroxy-10-methoxy-5,7-dihydro-6H-indolo[2,3-c]quinolin-6-one], the inhibition at 1 µM (AMPK (A1/B1/G2)) is reported as 81%, the inhibition at 1 µM (AMPK (A1/B1/G3)) is reported as 82% and the inhibition at 1 µM (AMPK (A1/B2/G1)) is reported as 86%. It also gave an inhibition at 1 µM (AMPK (A2/B2/G1)) of 70%, an inhibition at 1 µM (AMPK (A2/B2/G2)) of 80% and an inhibition at 1 µM (CAMKK1 (CAMKKA)) of 8%. For the same molecule, the inhibition at 1 µM (CDK8/cyclin C) was 40%, the inhibition at 1 µM (CDK9/cyclin K) was 59% and the inhibition at 1 µM (CLK4) was 100%. It also gave an inhibition at 1 µM (DAPK2) of 90%, an inhibition at 1 µM (EPHA3) of 13% and an inhibition at 1 µM (KIT V654A) of 25%. It also gave an inhibition at 1 µM (LIMK1) of 23%, an inhibition at 1 µM (MAP2K1 (MEK1)) of 98% and an inhibition at 1 µM (MAP2K2 (MEK2)) of 94%. It also gave an inhibition at 1 µM (MAP2K6 (MKK6)) of 2%, an inhibition at 1 µM [1] of 18% and an inhibition at 1 µM [2] of 98%. The inhibition at 1 µM (MAPK15 (ERK7)) was 58%, the inhibition at 1 µM (MAPK8 (JNK1)) was 43% and the inhibition at 1 µM (MAPK9 (JNK2)) was 25%. For the same molecule, the inhibition at 1 µM (RIPK2) was 13%, the inhibition at 1 µM (STK16 (PKL12)) was 51% and the inhibition at 1 µM (STK33) was 46%. The inhibition at 1 µM (STK39 (STLK3)) was 24%, the inhibition at 1 µM (TEC) was 4% and the inhibition at 1 µM (ULK3) was 45%. For the same molecule, the inhibition at 1 µM (WNK1) was 7%, the inhibition at 1 µM (WNK3) was 2% and the inhibition at 1 µM (ABL1 H396P) was 61%. It also gave an inhibition at 1 µM (ABL1 Q252H) of 77%, an inhibition at 1 µM (CDK11/cyclin C) of 37% and an inhibition at 1 µM (DDR2) of 3%. For the same molecule, the inhibition at 1 µM (KIT A829P) was 76%, the inhibition at 1 µM (KIT Y823D) was 30% and the inhibition at 1 µM (MAP3K2 (MEKK2)) was 42%. For the same molecule, the inhibition at 1 µM (MYLK4) was 111%, the inhibition at 1 µM (NUAK2) was 53% and the inhibition at 1 µM (STK38L (NDR2)) was 8%.
